{"source": "patent US20110118298A1", "about": "“COMPOSITIONS, KITS, AND METHODS FOR IDENTIFICATION, ASSESSMENT, PREVENTION, AND THERAPY OF CANCER” (INFINITY PHARMACEUTICALS, INC., priority 2009, published 2011)", "experiment": "Phase II study of IPI-504 monotherapy in advanced NSCLC: adverse events and laboratory abnormalities", "assay_type": "in vivo, human", "procedure": "Treatment consisted of a 30-minute infusion of intravenous IPI-504 on days 1, 4, 8 and 11 of a 21-day cycle. Therapy continued until progressive disease (PD), intolerable side effects, or elective withdrawal. A total of 76 patients were enrolled. The starting dose was 400 mg/m^2 for 75 patients. In April 2009, the dose for patients who were on study (19 patients) was lowered to 225 mg/m^2, due to hepatotoxicities observed at the 400 mg/m^2 dose in a separate trial of IPI-504 in patients with gastrointestinal stromal tumors (GIST) (Demetri G. D. et al. Final results from a phase III study of IPI-504 (retaspimycin hydrochloride) versus placebo in patients with gastrointestinal stromal tumors (GIST) following failure of kinase inhibitor therapies. Paper presented at: Gastrointestinal Cancers Symposium; Jan. 22-24, 2010, 2010; Orlando, Fla.), and the last enrolled patient started at a dose of 225 mg/m^2.\nAll patients were assessed for safety by history, physical examination, blood chemistries, liver function tests and blood counts, at baseline and prior to each infusion. Amylase and lipase were assessed if there were symptoms of pancreatitis. Adverse events were graded using the NCl common toxicity criteria version 3.0 (NCl. Common terminology criteria for adverse events (CTCAE) version 3.0 Aug. 9, 2006). Slit lamp eye examinations were performed during screening and electrocardiograms were obtained during screening and before and after the first infusion, to evaluate for keratitis and QTc prolongation, respectively. Radiographic evaluation of tumor response by CT-scan was performed after every 2 cycles. All films were reviewed and independently assessed by a central radiology core laboratory.\nSummary statistics were used to describe safety and included all patients treated with IPI-504. PFS was defined as the time from enrollment to progressive disease or death, censored at the last known follow-up, and was calculated with the Kaplan-Meier method, following the intent-to-treat principle.", "key": {"[1]": {"conditions": "maximum post-baseline grade based on laboratory values"}}, "note": "Counter-ions that a name gives are not always drawn."}
{"compound": "C=CCNc1c(O)cc2c(O)c1C[C@@H](C)C[C@H](OC)[C@H](O)[C@@H](C)/C=C(\\C)[C@H](OC(N)=O)[C@@H](OC)/C=C\\C=C(/C)C(=O)N2", "note": "[IPI-504, retaspimycin hydrochloride]", "values": [{"measurement": "Abdominal pain: patients with Grade 1 or 2 event", "setting": "76 patients", "result": "18 (23.7) n (%)"}, {"measurement": "Abdominal pain: patients with any event", "setting": "76 patients", "result": "18 (23.7) n (%)"}, {"measurement": "Abdominal pain: patients with ≧Grade 3 event", "setting": "76 patients", "result": "1 (1.3) n (%)"}, {"measurement": "Anorexia: patients with Grade 1 or 2 event", "setting": "76 patients", "result": "18 (23.7) n (%)"}, {"measurement": "Anorexia: patients with any event", "setting": "76 patients", "result": "19 (25.0) n (%)"}, {"measurement": "Anorexia: patients with ≧Grade 3 event", "setting": "76 patients", "result": "4 (5.3) n (%)"}, {"measurement": "Arthralgia: patients with Grade 1 or 2 event", "setting": "76 patients", "result": "17 (22.4) n (%)"}, {"measurement": "Arthralgia: patients with any event", "setting": "76 patients", "result": "19 (25.0) n (%)"}, {"measurement": "Arthralgia: patients with ≧Grade 3 event", "setting": "76 patients", "result": "2 (2.6) n (%)"}, {"measurement": "Back pain: patients with Grade 1 or 2 event", "setting": "76 patients", "result": "16 (21.1) n (%)"}, {"measurement": "Back pain: patients with any event", "setting": "76 patients", "result": "16 (21.1) n (%)"}, {"measurement": "Back pain: patients with ≧Grade 3 event", "setting": "76 patients", "result": "0 (0.0) n (%)"}, {"measurement": "Constipation: patients with Grade 1 or 2 event", "setting": "76 patients", "result": "18 (23.7) n (%)"}, {"measurement": "Constipation: patients with any event", "setting": "76 patients", "result": "18 (23.7) n (%)"}, {"measurement": "Constipation: patients with ≧Grade 3 event", "setting": "76 patients", "result": "2 (2.6) n (%)"}, {"measurement": "Cough: patients with Grade 1 or 2 event", "setting": "76 patients", "result": "24 (31.6) n (%)"}, {"measurement": "Cough: patients with any event", "setting": "76 patients", "result": "24 (31.6) n (%)"}, {"measurement": "Cough: patients with ≧Grade 3 event", "setting": "76 patients", "result": "2 (2.6) n (%)"}, {"measurement": "Dehydration: patients with Grade 1 or 2 event", "setting": "76 patients", "result": "11 (14.5) n (%)"}, {"measurement": "Dehydration: patients with any event", "setting": "76 patients", "result": "14 (18.4) n (%)"}, {"measurement": "Dehydration: patients with ≧Grade 3 event", "setting": "76 patients", "result": "3 (3.9) n (%)"}, {"measurement": "Diarrhoea: patients with Grade 1 or 2 event", "setting": "76 patients", "result": "37 (48.7) n (%)"}, {"measurement": "Diarrhoea: patients with any event", "setting": "76 patients", "result": "40 (52.6) n (%)"}, {"measurement": "Diarrhoea: patients with ≧Grade 3 event", "setting": "76 patients", "result": "8 (10.5) n (%)"}, {"measurement": "Dizziness: patients with Grade 1 or 2 event", "setting": "76 patients", "result": "12 (15.8) n (%)"}, {"measurement": "Dizziness: patients with any event", "setting": "76 patients", "result": "12 (15.8) n (%)"}, {"measurement": "Dizziness: patients with ≧Grade 3 event", "setting": "76 patients", "result": "0 (0.0) n (%)"}, {"measurement": "Dyspnoea: patients with Grade 1 or 2 event", "setting": "76 patients", "result": "15 (19.7) n (%)"}, {"measurement": "Dyspnoea: patients with any event", "setting": "76 patients", "result": "18 (23.7) n (%)"}, {"measurement": "Dyspnoea: patients with ≧Grade 3 event", "setting": "76 patients", "result": "6 (7.9) n (%)"}, {"measurement": "Fatigue: patients with Grade 1 or 2 event", "setting": "76 patients", "result": "41 (53.9) n (%)"}, {"measurement": "Fatigue: patients with any event", "setting": "76 patients", "result": "44 (57.9) n (%)"}, {"measurement": "Fatigue: patients with ≧Grade 3 event", "setting": "76 patients", "result": "6 (7.9) n (%)"}, {"measurement": "Headache: patients with Grade 1 or 2 event", "setting": "76 patients", "result": "19 (25.0) n (%)"}, {"measurement": "Headache: patients with any event", "setting": "76 patients", "result": "19 (25.0) n (%)"}, {"measurement": "Headache: patients with ≧Grade 3 event", "setting": "76 patients", "result": "0 (0.0) n (%)"}, {"measurement": "Infusion site pain: patients with Grade 1 or 2 event", "setting": "76 patients", "result": "15 (19.7) n (%)"}, {"measurement": "Infusion site pain: patients with any event", "setting": "76 patients", "result": "15 (19.7) n (%)"}, {"measurement": "Infusion site pain: patients with ≧Grade 3 event", "setting": "76 patients", "result": "0 (0.0) n (%)"}, {"measurement": "Insomnia: patients with Grade 1 or 2 event", "setting": "76 patients", "result": "12 (15.8) n (%)"}, {"measurement": "Insomnia: patients with any event", "setting": "76 patients", "result": "12 (15.8) n (%)"}, {"measurement": "Insomnia: patients with ≧Grade 3 event", "setting": "76 patients", "result": "0 (0.0) n (%)"}, {"measurement": "Musculoskeletal chest pain: patients with Grade 1 or 2 event", "setting": "76 patients", "result": "11 (14.5) n (%)"}, {"measurement": "Musculoskeletal chest pain: patients with any event", "setting": "76 patients", "result": "13 (17.1) n (%)"}, {"measurement": "Musculoskeletal chest pain: patients with ≧Grade 3 event", "setting": "76 patients", "result": "3 (3.9) n (%)"}, {"measurement": "Myalgia: patients with Grade 1 or 2 event", "setting": "76 patients", "result": "18 (23.7) n (%)"}, {"measurement": "Myalgia: patients with any event", "setting": "76 patients", "result": "19 (25.0) n (%)"}, {"measurement": "Myalgia: patients with ≧Grade 3 event", "setting": "76 patients", "result": "1 (1.3) n (%)"}, {"measurement": "Nausea: patients with Grade 1 or 2 event", "setting": "76 patients", "result": "41 (53.9) n (%)"}, {"measurement": "Nausea: patients with any event", "setting": "76 patients", "result": "43 (56.6) n (%)"}, {"measurement": "Nausea: patients with ≧Grade 3 event", "setting": "76 patients", "result": "6 (7.9) n (%)"}, {"measurement": "Pyrexia: patients with Grade 1 or 2 event", "setting": "76 patients", "result": "12 (15.8) n (%)"}, {"measurement": "Pyrexia: patients with any event", "setting": "76 patients", "result": "12 (15.8) n (%)"}, {"measurement": "Pyrexia: patients with ≧Grade 3 event", "setting": "76 patients", "result": "0 (0.0) n (%)"}, {"measurement": "Urine colour abnormal: patients with Grade 1 or 2 event", "setting": "76 patients", "result": "22 (28.9) n (%)"}, {"measurement": "Urine colour abnormal: patients with any event", "setting": "76 patients", "result": "22 (28.9) n (%)"}, {"measurement": "Urine colour abnormal: patients with ≧Grade 3 event", "setting": "76 patients", "result": "0 (0.0) n (%)"}, {"measurement": "Vision blurred: patients with Grade 1 or 2 event", "setting": "76 patients", "result": "12 (15.8) n (%)"}, {"measurement": "Vision blurred: patients with any event", "setting": "76 patients", "result": "12 (15.8) n (%)"}, {"measurement": "Vision blurred: patients with ≧Grade 3 event", "setting": "76 patients", "result": "0 (0.0) n (%)"}, {"measurement": "Vomiting: patients with Grade 1 or 2 event", "setting": "76 patients", "result": "25 (32.9) n (%)"}, {"measurement": "Vomiting: patients with any event", "setting": "76 patients", "result": "28 (36.8) n (%)"}, {"measurement": "Vomiting: patients with ≧Grade 3 event", "setting": "76 patients", "result": "6 (7.9) n (%)"}, {"measurement": "deaths on study considered related to study drug", "setting": "76 patients", "result": "Three"}, {"measurement": "patients who discontinued therapy for adverse events", "setting": "76 patients", "result": 14, "unit": "%"}, {"measurement": "patients with dose reductions for toxicity", "setting": "76 patients", "result": 12, "unit": "%"}, {"measurement": "bilirubin elevation", "setting": "Grade 3 or 4", "result": "No Grade 3 or 4 bilirubin elevation"}, {"measurement": "ALT elevations", "setting": "Grade 3 or greater", "result": 7, "unit": "%"}, {"measurement": "AST elevations", "setting": "Grade 3 or greater", "result": 9, "unit": "%"}, {"measurement": "alkaline phosphatase elevations", "setting": "Grade 3 or greater", "result": 5, "unit": "%"}, {"measurement": "tolerability", "setting": "IPI-504 monotherapy, hydrochloride", "result": "generally well tolerated"}, {"measurement": "alanine aminotransferase (ALT) elevations", "setting": "any grade", "result": 41, "unit": "%"}, {"measurement": "alkaline phosphatase elevations", "setting": "any grade", "result": 62, "unit": "%"}, {"measurement": "aspartate aminotransferase (AST) elevations", "setting": "any grade", "result": 49, "unit": "%"}, {"measurement": "ALT (liver function test): patients with Grade 1 or 2 event", "setting": "[1]", "result": "26 (34.2) n (%)"}, {"measurement": "ALT (liver function test): patients with any event", "setting": "[1]", "result": "31 (40.8) n (%)"}, {"measurement": "ALT (liver function test): patients with ≧Grade 3 event", "setting": "[1]", "result": "5 (6.6) n (%)"}, {"measurement": "AST (liver function test): patients with Grade 1 or 2 event", "setting": "[1]", "result": "30 (39.5) n (%)"}, {"measurement": "AST (liver function test): patients with any event", "setting": "[1]", "result": "37 (48.7) n (%)"}, {"measurement": "AST (liver function test): patients with ≧Grade 3 event", "setting": "[1]", "result": "7 (9.2) n (%)"}, {"measurement": "Alkaline phosphatase (liver function test): patients with Grade 1 or 2 event", "setting": "[1]", "result": "43 (56.6) n (%)"}, {"measurement": "Alkaline phosphatase (liver function test): patients with any event", "setting": "[1]", "result": "47 (61.8) n (%)"}, {"measurement": "Alkaline phosphatase (liver function test): patients with ≧Grade 3 event", "setting": "[1]", "result": "4 (5.3) n (%)"}, {"measurement": "Total bilirubin (liver function test): patients with Grade 1 or 2 event", "setting": "[1]", "result": "3 (3.9) n (%)"}, {"measurement": "Total bilirubin (liver function test): patients with any event", "setting": "[1]", "result": "3 (3.9) n (%)"}, {"measurement": "Total bilirubin (liver function test): patients with ≧Grade 3 event", "setting": "[1]", "result": "0 (0.0) n (%)"}, {"measurement": "transient, non-toxic purple-colored urine", "setting": "share of patients", "result": "About a third"}]}
